Measured values as given in the SangsterLogP compilation.

Test: method code SF-AS, from DOI: 10.1111/j.1399-3011.1986.tb03252.x
Conditions: pH 7.0

| Compound | logD |
| --- | --- |
| CCCC(NC(C)=O)C(N)=O (stereo not drawn) | -0.45 |
| C=CCC(CC=C)(NC(C)=O)C(N)=O | 0.05 |
| CC(=O)NC(C)C(N)=O (stereo not drawn) | -1.41 |
| C=CCC(NC(C)=O)C(N)=O (stereo not drawn) | -0.86 |
| CC(=O)NCC(N)=O | -1.68 |
| CC(=O)NC(Cc1ccccc1)(Cc1ccccc1)C(N)=O | 2.09 |
| CC(=O)NC(C)(C)C(N)=O | -0.87 |
| CCCC(CCC)(NC(C)=O)C(N)=O | 0.75 |
